Target: recombinant SARS-CoV-2 M^pro (Severe acute respiratory syndrome coronavirus 2 (2019-nCoV) (SARS-CoV-2), UniProt P0DTD1)
Experiment: Inhibition of SARS-CoV-2 M^pro enzyme activity (fluorescent substrate assay)
Type: biochemical
Details: inhibition of SARS-CoV-2 M^pro enzyme activity; values given in μM; read-out: IC50

| Compound | IC50 [µM] |
| --- | --- |
| O=C(NCc1nccs1)C(=O)[C@@H](Cc1cccc(Cl)c1)NC(=O)c1ccccc1 [Compound 469] | 1.43 ± 0.15 |
| C[C@@H](NC(=O)c1cccnc1)C(=O)N[C@H](Cc1ccccc1)C(=O)C(=O)NCc1ccccn1 [Compound 142] | 1.21 ± 0.89 |
| O=C(NCc1ccco1)C(=O)[C@@H](Cc1ccccc1)NC(=O)c1ccccc1 [Compound 456] | 37.2 ± 0.51 |
| O=C(NCc1cccs1)C(=O)[C@@H](Cc1ccccc1)NC(=O)c1ccccc1 [Compound 455] | 77.3 ± 2.31 |
| C[C@@H](NC(=O)Cc1cc(OC(F)(F)F)ccc1F)C(=O)N[C@H](Cc1ccccc1)C(=O)C(=O)NCc1nccs1 [Compound 382] | 15 ± 1.3 |
| O=C(NCc1ccccn1)C(=O)[C@@H](Cc1ccccc1)NC(=O)[C@@H]1C[C@@H]2CCCC[C@@H]2N1C(=O)C1CCC(F)(F)CC1 [Compound 264] | > 2.5 |
| C[C@@H](NC(=O)C1CCC(F)(F)CC1)C(=O)N[C@H](Cc1ccccc1)C(=O)C(=O)NCc1nc2ccccc2s1 [Compound 355] | > 2.5 |
| CC(C)(C)[C@H](NC(=O)C(F)(F)F)C(=O)N[C@H](Cc1ccccc1)C(=O)C(=O)NCc1ccccn1 [Compound 245] | > 5 |
| O=C(NCc1nccs1)C(=O)[C@@H](Cc1ccc(F)cc1)NC(=O)c1ccccc1 [Compound 466] | 1.95 ± 0.29 |
| O=C(Cn1cc(-c2ccc(OC(F)(F)F)cc2)cn1)N[C@H](Cc1ccccc1)C(=O)C(=O)NCc1nccs1 [Compound 495] | 2.27 ± 0.09 |

Same assay, conditions: inhibition of SARS-CoV-2 M^pro enzyme activity; values in nM; read-out: IC50

| Compound | IC50 [µM] |
| --- | --- |
| C[C@@H](OCc1cccc(F)c1)C(=O)N[C@H](Cc1ccccc1)C(=O)C(=O)NCc1ccccn1 [Compound 7] | 0.0285 ± 0.0009 |
| O=C(NCc1cscn1)C(=O)[C@@H](Cc1ccccc1)NC(=O)[C@H]1CC(F)(F)CN1C(=O)C1CCC(F)(F)CC1 [Compound 433] | 0.7496 ± 0.0011 |
| O=C(NCc1ccccn1)C(=O)[C@@H](Cc1ccccc1)NC(=O)C1(NC(=O)C2CCOCC2)CCC1 [Compound 191] | 0.073 ± 0.0045 |
| C[C@@H](NC(=O)C1CCC(F)(F)CC1)C(=O)N[C@H](Cc1ccccc1)C(=O)C(=O)NCc1cocn1 [Compound 350] | 0.042 ± 0.0037 |
| O=C(Cn1cc(-c2ccccc2)cn1)N[C@H](Cc1ccccc1)C(=O)C(=O)NCc1nccs1 [Compound 491] | 0.216 ± 0.0073 |
| O=C(CN1C(=O)CN(c2ccc(F)cc2)C1=O)N[C@H](Cc1ccccc1)C(=O)C(=O)NCc1nccs1 [Compound 525] | 0.0845 ± 0.0018 |
| O=C(NCc1ccccn1)C(=O)[C@@H](Cc1ccccc1)NC(=O)[C@H](NC(=O)C1CCC(F)(F)CC1)C1CCCC1 [Compound 226] | 0.016 ± 0.0008 |
| Cc1cccnc1CNC(=O)C(=O)[C@@H](Cc1ccccc1)NC(=O)[C@@H](C)NC(=O)C1CCC(F)(F)CC1 [Compound 340] | 0.0762 ± 0.0017 |
| COc1ccc(OC(F)(F)F)cc1C(=O)NC(C)(C)C(=O)N[C@H](Cc1ccccc1)C(=O)C(=O)NCc1ccccn1 [Compound 183] | 0.0219 ± 0.0003 |
| O=C(NCc1ccccn1)C(=O)[C@@H](Cc1ccccc1)NC(=O)C1(NC(=O)C2CCC(F)(F)CC2)CCCC1 [Compound 239] | 0.0322 ± 0.001 |
| C[C@@H](NC(=O)c1cc2ccccc2[nH]1)C(=O)N[C@H](Cc1ccccc1)C(=O)C(=O)NCc1nccs1 [Compound 380] | 0.0558 ± 0.0072 |
| C[C@@H](NC(=O)C1CCCCC1)C(=O)N[C@H](Cc1ccccc1)C(=O)C(=O)NCc1ccccn1 [Compound 146] | 0.0123 ± 0.0002 |
| O=C(NCc1cscn1)C(=O)[C@@H](Cc1ccccc1)NC(=O)[C@H]1COCCN1C(=O)C1CCC(F)(F)CC1 [Compound 438] | 0.0234 ± 0.0018 |
| C[C@@H](NC(=O)CC1CC1(F)F)C(=O)N[C@H](Cc1ccco1)C(=O)C(=O)NCc1nccs1 (stereo partly shown) [Compound 368] | 0.197 ± 0.014 |
| O=C(NCc1nccs1)C(=O)[C@@H](Cc1ccccc1)NC(=O)[C@H](NC(=O)C1CCC(F)(F)CC1)C1CC1 [Compound 543] | 0.107 ± 0.0013 |
| C[C@@H](NC(=O)Cc1ccc(Cl)cc1)C(=O)N[C@H](Cc1ccccc1)C(=O)C(=O)NCc1ccccn1 [Compound 76] | 0.023 ± 0.0011 |
| C[C@@H](NC(=O)C1CCC(F)(F)CC1)C(=O)N[C@H](Cc1ccccc1)C(=O)C(=O)NCc1ccon1 [Compound 353] | 0.8458 ± 0.0021 |
| O=C(Cn1cc(-c2ccccc2F)nn1)N[C@H](Cc1ccccc1)C(=O)C(=O)NCc1nccs1 [Compound 532, (R)-3-(2-(4-(2-fluorophenyl)-1H-1,2,3-triazol-1-yl)acetamido)-2-oxo-4-phenyl-N-(thiazole-2-ylmethyl)butyramide] | 0.6245 ± 0.0026 |
| O=C(CNC(=O)C1CCOCC1)N[C@H](Cc1ccccc1)C(=O)C(=O)NCc1ccccn1 [Compound 446] | 0.4141 ± 0.0018 |
| COC[C@@H](NC(=O)C1CCCC(F)(F)C1)C(=O)N[C@H](Cc1ccccc1)C(=O)C(=O)NCc1ncsn1 (stereo partly shown) [Compound 564] | 0.774 ± 0.0088 |
| O=C(N[C@@H](C1CC1)C(F)(F)F)NC1(C(=O)N[C@H](Cc2ccccc2)C(=O)C(=O)NCc2ccccn2)CCC1 [Compound 306] | 0.0193 ± 0.001 |
| COC[C@@H](NC(=O)C1CCCC(F)(F)C1)C(=O)N[C@H](Cc1ccccc1)C(=O)C(=O)NCc1cocn1 (stereo partly shown) [Compound 560] | 0.0221 ± 0.0007 |
| O=C(NCc1ccccn1)C(=O)[C@@H](Cc1ccccc1)NC(=O)C(NC(=O)c1ccc(F)cc1)C(F)(F)F (stereo partly shown) [Compound 249] | 0.256 ± 0.0064 |
| O=C(NC1(C(=O)N[C@H](Cc2ccccc2)C(=O)C(=O)NCc2ccccn2)CCC1)OC1CCC(F)(F)CC1 [Compound 314] | 0.0124 ± 0.0003 |
| O=C(Cn1cc(-c2ccc(F)c(C(F)(F)F)c2)cn1)N[C@H](Cc1ccccc1)C(=O)C(=O)NCc1nccs1 [Compound 498] | 0.103 ± 0.0053 |
| O=C(NCc1cscn1)C(=O)[C@@H](Cc1ccccc1)NC(=O)[C@H]1COCCN1C(=O)C1CCC(F)(F)C1 (stereo partly shown) [Compound 437] | 0.0611 ± 0.0012 |
| O=C(CNC(=O)[C@@H]1C[C@@H]2[C@H](C1)C2(F)F)N[C@H](Cc1ccccc1)C(=O)C(=O)NCc1nccs1 [Compound 389] | 0.11 ± 0.0016 |

| Compound | IC50 [µM] |
| --- | --- |
| C[C@@H](OCc1cc(F)cc(Cl)c1)C(=O)N[C@H](Cc1ccccc1)C(=O)C(=O)NCc1ccccn1 [Compound 15] | 0.0098 ± 0.0001 |
| O=C(NCc1ccccn1)C(=O)[C@@H](Cc1ccccc1)NC(=O)[C@@H]1COCCN1C(=O)CC1CCC(F)(F)CC1 [Compound 292] | 0.0114 ± 0.0002 |
| C[C@@H](NC(=O)C1CCC(F)(F)CC1)C(=O)N[C@H](Cc1ccccc1)C(=O)C(=O)NCc1ccc(Cl)cn1 [Compound 120] | 0.1133 ± 0.001 |
| CC(Oc1ccc(C2CC2(Cl)Cl)cc1)C(=O)N[C@H](C)C(=O)N[C@H](Cc1ccccc1)C(=O)C(=O)NCc1ccccn1 (stereo partly shown) [Compound 97] | 0.0372 ± 0.0048 |
| O=C(NCc1nccs1)C(=O)[C@@H](Cc1ccccc1)NC(=O)[C@H]1COCCN1C(=O)C1CCC(F)(F)CC1 [Compound 407] | 0.0214 ± 0.0003 |
| O=C(NCc1ccccn1)C(=O)[C@@H](Cc1ccccc1)NC(=O)[C@H]1CCCCN1C(=O)[C@H]1CC[C@@H](C(F)(F)F)CC1 [Compound 281] | 0.0148 ± 0.0001 |
| O=C(NCc1ccccn1)C(=O)[C@@H](Cc1ccccc1)NC(=O)C1(NC(=O)c2cc(Br)cc(OC(F)(F)F)c2)CC1 [Compound 163] | 0.0208 ± 0.0007 |
| C[C@@H](NC(=O)CCc1ccccc1)C(=O)N[C@H](Cc1ccccc1)C(=O)C(=O)NCc1ccccn1 [Compound 66] | 0.0117 ± 0.0001 |
| C[C@@H](NC(=O)Cc1ccc(F)cc1)C(=O)N[C@H](Cc1ccccc1)C(=O)C(=O)NCc1ccccn1 [Compound 75] | 0.0193 ± 0.0007 |
| O=C(NCc1nccs1)C(=O)[C@@H](Cc1ccccc1)NC(=O)[C@H]1CC(F)(F)CN1C(=O)CC1CC1(F)F (stereo partly shown) [Compound 405] | 0.104 ± 0.0017 |
| O=C(Cn1cc(-c2cc(F)c(F)c(F)c2)cn1)N[C@H](Cc1ccccc1)C(=O)C(=O)NCc1nccs1 [Compound 504] | 0.0477 ± 0.0009 |
| C[C@@H](NC(=O)CC1CCC(F)(F)CC1)C(=O)N[C@H](Cc1ccccc1)C(=O)C(=O)NCc1ccccn1 [Compound 125] | 0.0197 ± 0.0012 |
| C[C@@H](NC(=O)COc1ccc2ccccc2c1)C(=O)N[C@H](Cc1ccccc1)C(=O)C(=O)NCc1ccccn1 [Compound 91] | 0.0484 ± 0.002 |
| C[C@@H](NC(=O)CC1CCC(F)(F)CC1)C(=O)N[C@H](Cc1ccccc1)C(=O)C(=O)NCc1nccs1 [Compound 373] | 0.016 ± 0.0008 |
| C[C@@H](OCc1ccc(Cl)cc1)C(=O)N[C@H](Cc1ccccc1)C(=O)C(=O)NCc1ccc(Cl)cn1 [Compound 45] | 0.0147 ± 0.001 |
| O=C(NCc1ccccn1)C(=O)[C@@H](Cc1ccccc1)NC(=O)C1(NC(=O)C2CCC(F)(F)CC2)CC(F)(F)C1 [Compound 227] | 0.019 ± 0.0003 |
| O=C(Cn1cc(-c2cc(F)cc(F)c2)cn1)N[C@H](Cc1ccccc1)C(=O)C(=O)NCc1nccs1 [Compound 502] | 0.047 ± 0.0005 |
| O=C(NCc1ccccn1)C(=O)[C@@H](Cc1ccccc1)NC(=O)C1(NC(=O)c2ccc(F)cc2)CCCC1 [Compound 248] | 0.0246 ± 0.0006 |
| O=C(Cn1cc(-c2c(F)ccc(F)c2F)cn1)N[C@H](Cc1ccccc1)C(=O)C(=O)NCc1nccs1 [Compound 505] | 0.239 ± 0.004 |
| COC[C@@H](NC(=O)C1CCC(F)(F)CC1)C(=O)N[C@H](Cc1ccccc1)C(=O)C(=O)NCc1ccccn1 [Compound 222] | 0.0165 ± 0.0015 |
| O=C(NCc1ccccn1)C(=O)[C@@H](Cc1ccccc1)NC(=O)[C@H]1C[C@H]2C[C@H]2N1C(=O)C1CCC(F)(F)CC1 [Compound 269] | 0.0196 ± 0.0004 |
| O=C(NCc1ccccn1)C(=O)[C@@H](Cc1ccccc1)NC(=O)[C@@]1(NC(=O)C2CCC(F)(F)CC2)C[C@H]1C(F)F [Compound 233] | 0.0103 ± 0.0003 |
| C[C@@H](OCc1cccc(OC(F)(F)F)c1)C(=O)N[C@H](Cc1ccccc1)C(=O)C(=O)NCc1ccc(Cl)cn1 [Compound 47] | 0.0141 ± 0.0001 |
| O=C(NCc1ccccn1)C(=O)[C@@H](Cc1ccccc1)NC(=O)C1(NC(=O)C2CCC(F)(F)CC2)COC1 [Compound 234] | 0.0188 ± 0.0027 |
| CC(C)(NC(=O)C1CCC(F)(F)CC1)C(=O)N[C@H](Cc1ccccc1)C(=O)C(=O)NCc1nccs1 [Compound 537] | 0.0895 ± 0.0015 |
| C[C@@H](NC(=O)COC1CCCCC1)C(=O)N[C@H](Cc1ccccc1)C(=O)C(=O)NCc1ccccn1 [Compound 114] | 0.0349 ± 0.001 |
| C[C@@H](NC(=O)C1(O)CCCCC1)C(=O)N[C@H](Cc1ccccc1)C(=O)C(=O)NCc1ccccn1 [Compound 107] | 0.052 ± 0.0002 |
